System: SW480
Assay: drug sensitivity score (DSS, integrated dose-response area); higher = more sensitive (stronger viability reduction); extreme values may be limits of the assay
Summary of the method: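 SW480 cells stably carrying doxycycline-inducible control or SND1-targeting shRNA were induced with 0.1 µg/mL doxycycline for 7 days. They were then plated at 1000 cells per well in 384-well plates holding 525 commercially available small-molecule inhibitors at five concentrations. Viability was read with CellTiter-Glo after 72 h. The drug sensitivity score integrates the area under a fitted non-linear dose–response model.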

[1] = shRNA: SND1 shRNA1 (SND1 silenced)
[2] = shRNA: SND1 shRNA2 (SND1 silenced)
[3] = shRNA: control shRNA (non-targeting)

| Compound | drug sensitivity score [1] | drug sensitivity score [2] | drug sensitivity score [3] |
| --- | --- | --- | --- |
| CC(C)(C)c1cnc(CSc2cnc(NC(=O)C3CCNCC3)s2)o1 [SNS-032] | 18.1 DSS | 15 DSS | 16.5 DSS |
| Cc1c(CN2CCN(C(=O)[C@H](C)O)CC2)sc2c(N3CCOCC3)nc(-c3cnc(N)nc3)nc12 [Apitolisib] | 11 DSS | 9.3 DSS | 6.6 DSS |
| O=C(NOCCO)c1ccc2cncn2c1Nc1ccc(I)cc1F [GDC-0623] | 13.9 DSS | 7.6 DSS | 7.4 DSS |
| Nc1ncn([C@H]2C[C@H](O)[C@@H](CO)O2)c(=O)n1 [Decitabine] | 11 DSS | 8.2 DSS | 5.5 DSS |
| Cc1cccc(-c2[nH]c(CNc3ccccc3F)nc2-c2ccc3ncnn3c2)n1 [TEW-7197] | 0 DSS | 0.6 DSS | 0.6 DSS |
| Cn1cc(-c2cnn3c(N)c(Br)c([C@@H]4CCCNC4)nc23)cn1 [MK-8776] | 0.9 DSS | 0.1 DSS | 2.2 DSS |
| CC1(COc2ccc3c(c2)ncn3-c2ccc3cccc(N4CCC(N)CC4)c3n2)COC1 [Crenolanib] | 11.9 DSS | 11.7 DSS | 13 DSS |
| O=C1NC(=O)/C(=C/c2ccc3nccc(-c4ccncc4)c3c2)S1 | 7.6 DSS | – | 5.9 DSS |
| CO[C@H]1C(=O)[C@]2(C)[C@@H](OC)C[C@H]3OC[C@@]3(OC(C)=O)[C@H]2[C@H](OC(=O)c2ccccc2)[C@]2(O)C[C@H](OC(=O)[C@H](O)[C@@H](NC(=O)OC(C)(C)C)c3ccccc3)C(C)=C1C2(C)C [Cabazitaxel] | 18.7 DSS | 14.6 DSS | 20.3 DSS |
| Nc1nc(N)c2nc(-c3cccc(O)c3)c(-c3cccc(O)c3)nc2n1 [TG100-115] | 0 DSS | 2.6 DSS | 4.9 DSS |
| CCNc1nc(Nc2cc(F)c(C(=O)N3CCOCC3)cc2OC)ncc1C(F)(F)F [GNE-7915] | 0 DSS | 0 DSS | 1.4 DSS |
| CO[C@@H](C(=O)N1Cc2[nH]nc(NC(=O)c3ccc(N4CCN(C)CC4)cc3)c2C1)c1ccccc1 [Danusertib] | 6.5 DSS | 4.7 DSS | 4.9 DSS |
| COc1cc2ncnc(Nc3ccc(F)c(Cl)c3)c2cc1NC(=O)/C=C/CN1CCCCC1 [Dacomitinib] | 3.3 DSS | 7 DSS | 10.2 DSS |
| CC[C@H](CO)Nc1nc(NCc2ccccc2)c2ncn(C(C)C)c2n1 [Seliciclib] | 2.1 DSS | 0.7 DSS | 1.2 DSS |
| CCC1=C[C@@H]2CN(C1)Cc1c([nH]c3ccccc13)[C@@](C(=O)OC)(c1cc3c(cc1OC)N(C)[C@H]1[C@@](O)(C(=O)OC)[C@H](OC(C)=O)[C@]4(CC)C=CCN5CC[C@]31[C@@H]54)C2 [Vinorelbine] | 19.3 DSS | 19.5 DSS | 22.4 DSS |
| FC(F)(F)c1ccc(/C=C/c2nc(COc3ccc(CCCCn4ccnn4)cc3)co2)cc1 [Mubritinib] | 3.8 DSS | 9.3 DSS | 5.5 DSS |
| OC[C@H]1O[C@@H](n2cnc3c2N=CNC[C@H]3O)C[C@@H]1O [Pentostatin] | 1.6 DSS | 3.5 DSS | 2.9 DSS |
| CCN(CC)CCOc1ccc(C(=C(Cl)c2ccccc2)c2ccccc2)cc1 [Clomifene] | 7 DSS | 5.3 DSS | 6.1 DSS |
| O=C(/C=C\n1cnc(-c2cc(C(F)(F)F)cc(C(F)(F)F)c2)n1)NNc1cnccn1 [Selinexor] | 19.5 DSS | 19.3 DSS | 20.7 DSS |
| O=C(Nc1ccc(OC(F)(F)F)cc1)c1sccc1NCc1ccnc2ccccc12 [OSI-930] | 1.8 DSS | 6.5 DSS | 6.3 DSS |
| CNc1nc(-c2ccc3c(N)n[nH]c3c2)cc(N2C[C@@H](C(=O)NC3CCCCC3)CC[C@H]2C)n1 | 4.7 DSS | 4.2 DSS | 3.8 DSS |
| CCS(=O)(=O)N1CC(CC#N)(n2cc(-c3ncnc4[nH]ccc34)cn2)C1 [Baricitinib] | 0 DSS | 0.3 DSS | 1 DSS |
| CC(C)(C)c1cc(NC(=O)Nc2ccc(-c3cn4c(n3)sc3cc(OCCN5CCOCC5)ccc34)cc2)no1 [Quizartinib] | 0 DSS | 0 DSS | 0 DSS |
| COc1cccc(OCCCN)c1-c1cc(Nc2cnc(C#N)cn2)n[nH]1 [Prexasertib] | 29.1 DSS | 26.2 DSS | 28.1 DSS |
| CC(C)(C)C[C@@H]1N[C@@H](C(=O)N[C@H]2CC[C@H](O)CC2)[C@H](c2cccc(Cl)c2F)[C@]12C(=O)Nc1cc(Cl)ccc12 | 1.3 DSS | 1.9 DSS | 3.3 DSS |
| C[C@]12O[C@H](C[C@]1(O)CO)n1c3ccccc3c3c4c(c5c6ccccc6n2c5c31)CNC4=O [Lestaurtinib] | 6.8 DSS | 7.1 DSS | 8.3 DSS |

| Compound | drug sensitivity score [1] | drug sensitivity score [2] | drug sensitivity score [3] |
| --- | --- | --- | --- |
| CC[C@@H]1C(=O)N(C)c2cnc(Nc3ccc(C(=O)NC4CCN(C)CC4)cc3OC)nc2N1C1CCCC1 [BI 2536] | 16.8 DSS | 18.5 DSS | 19.9 DSS |
| CN(C)c1nc(N(C)C)nc(N(C)C)n1 [Altretamine] | 0 DSS | 0 DSS | 0 DSS |
| O=C(NC[C@H](O)CN1CCc2ccccc2C1)c1cc(NC2COC2)ncn1 | 0 DSS | 0 DSS | 0.2 DSS |
| C[C@@H](C(=O)O)c1ccc(-c2ccccc2)c(F)c1 [Tarenflurbil] | 0 DSS | 0 DSS | 0 DSS |
| NS(=O)(=O)OC[C@@H]1C[C@@H](n2ccc3c(N[C@H]4CCc5ccccc54)ncnc32)C[C@@H]1O [Pevonedistat] | 4.5 DSS | – | 8.2 DSS |
| Cc1ncc(Cl)cc1NCc1ccc(C(=O)N[C@@H](CC2CCCC2)C(=O)NC2CC2)s1 | 0 DSS | 0 DSS | 0.3 DSS |
| Nc1nc(Cl)nc2c1ncn2[C@@H]1O[C@H](CO)[C@@H](O)[C@@H]1F [Clofarabine] | 8.4 DSS | 0.7 DSS | 6.5 DSS |
| CC(=O)O[C@]1(C(C)=O)CC[C@H]2[C@@H]3C=C(C)C4=CC(=O)CC[C@]4(C)[C@H]3CC[C@@]21C [Megestrol acetate] | 0 DSS | 0 DSS | 0 DSS |
| CCN(CC)CCNC(=O)c1c(C)[nH]c(/C=C2\C(=O)Nc3ccc(F)cc32)c1C [Sunitinib] | 0.3 DSS | 0.1 DSS | 0.7 DSS |
| Cc1cnc(Nc2ccc(OCCN3CCCC3)cc2)nc1Nc1cccc(S(=O)(=O)NC(C)(C)C)c1 [Fedratinib] | 5.8 DSS | 6.5 DSS | 5.8 DSS |
| CN(C)Cc1ccc(S(=O)(=O)n2ccc(/C=C/C(=O)NO)c2)cc1 [Resminostat] | 8 DSS | 8.1 DSS | 6.1 DSS |
| CCCCCOC(=O)Nc1nc(=O)n([C@@H]2O[C@H](C)[C@@H](O)[C@H]2O)cc1F [Capecitabine] | 0 DSS | 0 DSS | 0 DSS |
| Cc1cccc(-c2nn3c(c2-c2ccnc4ccc(C(N)=O)cc24)CCC3)n1 [Galunisertib] | 0 DSS | 0 DSS | 0 DSS |
| COc1cc(Nc2ncc3c(n2)-c2ccc(Cl)cc2C(c2c(F)cccc2OC)=NC3)ccc1C(=O)O [Alisertib] | 12.6 DSS | 4.4 DSS | 6.5 DSS |
| CCn1c(=O)c(-c2cc[nH]n2)cc2c(C)nc(N)nc21 [Voxtalisib] | 7.4 DSS | 6.5 DSS | 5.7 DSS |
| NC(=O)c1cccc(-c2cccc(OC(=O)NC3CCCCC3)c2)c1 [URB597] | 0.2 DSS | – | 2.6 DSS |
| COCC[n+]1c2c(n(Cc3cnccn3)c1C)C(=O)c1ccccc1C2=O [YM155] | 15.5 DSS | 8.8 DSS | 21.4 DSS |
| CC(C)c1c(C(=O)Nc2ccccc2)c(-c2ccccc2)c(-c2ccc(F)cc2)n1CC[C@@H](O)C[C@@H](O)CC(=O)O [Atorvastatin] | 4.9 DSS | – | 7.6 DSS |
| Nc1nc(OCc2cc(Br)cs2)c2[nH]cnc2n1 [Lomeguatrib] | 0 DSS | 1.9 DSS | 0.5 DSS |
| CCN(CC)CCCC(C)Nc1ccnc2cc(Cl)ccc12 (stereo unspecified) [Chloroquine] | 14.9 DSS | – | 11.6 DSS |
| CCS(=O)(=O)N1CCN(c2ccc(Nc3ncc(C(N)=O)c(NC4CC4)n3)cc2)CC1 [Cerdulatinib] | 7.8 DSS | 6.6 DSS | 9.3 DSS |
| CC[C@H](Nc1ncnc2[nH]cnc12)c1nc2cccc(F)c2c(=O)n1-c1ccccc1 [Idelalisib] | 2.3 DSS | 4.6 DSS | 0.7 DSS |
| COc1nc(N)nc2c1ncn2[C@@H]1O[C@H](CO)[C@@H](O)[C@@H]1O [Nelarabine] | 0 DSS | 0 DSS | 0 DSS |
| CCn1c(-c2nonc2N)nc2c(C#CC(C)(C)O)ncc(OC[C@H]3CCCNC3)c21 | 0.9 DSS | – | 2 DSS |
| O=c1ncn2nc(Sc3ccc(F)cc3F)ccc2c1-c1c(Cl)cccc1Cl [VX 745] | 1.4 DSS | – | 3.4 DSS |

From the supplement of paper PMC9265050, “Inhibition of RNA Binding in SND1 Increases the Levels of miR-1-3p and Sensitizes Cancer Cells to Navitoclax” (Cancers, 2022)
